Results published in US6818741B2, “Alpha-fetoprotein peptides and uses therof” (CLF Medical Technology Acceleration Program, Inc., priority 2000, dated 2004).
“Also recorded” adds a separate entry of the source. Values belong to the compound of their own block, whether it stands above or below them. Square brackets hold non-standard residues; d marks the D form. Ends that are not written are not given here. Peptide text beside a SMILES is read from it. Hyp = O=C(O)[C@@H]1C[C@@H](O)CN1

Assays:
[1] = tamoxifen users; cited from earlier work
[2] = tested on: MCF-7 human breast cancer xenografts; assay: Human breast cancer xenograft assay, MCF-7; format: in vivo; settings: E2 implant; peptide 1 μg i.p. twice a day; tamoxifen 50 μg i.p. once a day; 30-day observation; vs E2 alone
Experimental: (§1) Tumors were implanted as described in Materials and Methods. […] There was a minimum of 5 mice per group. (FIG. 9a) MCF-7 tumors.
Human Breast Cancer Xenograft Assay. A bioassay for anti-breast cancer activity was performed according to Bennett et al. (23;24). Confluent MCF-7 human breast cancer cells were trypsinized into suspension and pelleted by centrifugation at 200× g. The pellet was then solidified into a fibrin clot by exposing it to 10 μl of fibrinogen (50 mg/ml) and 10 μl of thrombin (50 units/ml). The solid mass of MCF-7 cells was then cut into pieces 1.5 mm in diameter. A tumor segment of ˜1.5 mm in diameter was implanted under the kidney capsule of an immunodeficient ICR-SCID male mouse (Taconic Farms) that weighed about 25 g. Estrogen supplementation was accomplished by s.c. implantation of a silastic tubing capsule containing solid E2 inserted on the day of tumor implantation. Peptide was injected i.p. every twelve hours at a dose of 1 μg per mouse. Tumor growth was monitored during survival laparotomy at 10-day intervals by measurement of the diameters of the short (d) and long axes (D) of each tumor, using a dissecting microscope equipped with an ocular micrometer. Tumor volumes were calculated using the formula (π/6)(d)^2D, assuming the tumor shape to be an ellipsoid of revolution around its long axis (D). There were five to seven replicate mice included in each treatment group. Mean tumor volume±standard error in each group was calculated for display of growth curves. Significance of differences between groups were tested using the one-sided Wilcoxon Sum of Ranks Test.

[3] = tested on: T47D human breast cancer xenografts; assay: Human breast cancer xenograft assay, T47D; format: in vivo; settings: E2 supplementation; 30-day observation; vs E2 alone
[4] = tested on: MCF-7/Tam human breast cancer xenografts; assay: Human breast cancer xenograft assay, tamoxifen-resistant MCF-7 subline; format: in vivo; settings: E2 implant; peptide 1 μg i.p. twice a day; tamoxifen 50 μg i.p. once a day; day 30; vs E2 alone
Experimental: as §1
Cell Lines. T47D and MDA-MB-231 human breast cancer cell lines were purchased from the American Type Culture Collection (Manassas, Va.). Growth medium for T47D cells consisted of RPMI 1640 (Life Technologies, Germantown, Md.) supplemented with 10% fetal bovine serum (Life Technologies) and 8 μg/ml bovine insulin (Sigma, St. Louis, Mo.). Growth medium for MDA-MB-231 consisted of Dulbecco's Modified Eagle Medium (Life Technologies) supplemented with L-glutamine (2 mM), non-essential amino acids (1%, Life Technologies) and bovine insulin (1 μg/ml). The MCF-7 cell line was obtained from Dr. Alberto C. Baldi, Institute of Experimental Biology and Medicine, Buenos Aires, Argentina, and was maintained as previously describedby Gierthy et al. (1991).
Human Breast Cancer Xenograft Assay. […] Tumor growth was monitored during survival laparotomy at 10-day intervals by measurement of the diameters of the short (d) and long axes (D) of each tumor, using a dissecting microscope equipped with an ocular micrometer. Tumor volumes were calculated using the formula (π/6)(d)^2D, assuming the tumor shape to be an ellipsoid of revolution around its long axis (D). […] Mean tumor volume±standard error in each group was calculated for display of growth curves. […]

[5] = tested on: estrogen-receptor-negative MDA-MB-231 human breast cancer xenografts; assay: Human breast cancer xenograft assay, MDA-MB-231; format: in vivo; settings: ER− tumor, 30 day observation
[6] = tested on: E2-stimulated growth of immature mouse uterus; assay: Immature mouse uterine growth assay (anti-estrotrophic activity); format: in vivo; settings: for dose of maximal (optimal) inhibition of estrogen-stimulated growth of mouse uterus: i.p., dose-response; for inhibition of the uterotrophic effect of estradiol (normalized uterine weight, E2+ Pep vs E2): Pep i.p. one hour before E2, uteri weighed 22 hours later; for effect of 4 M urea treatment on biological activity of stored peptide: stored (aged) peptide, brief treatment with 4 M urea; for biological activity of gel-filtration fraction: aged peptide, 1 μg i.p.
Source text: (§2) Twenty-two hours later, uteri were dissected and weighed. […] (FIG. 1a) Peptide dose-response.
(§3) Immature Mouse Uterine Growth Assay.

[7] = tested on: growth of the immature mouse uterus; assay: Uterotrophic effect of test agent alone on immature mouse uterus; format: in vivo; settings: even at a dose of 10 μg/mouse
Experimental: Various doses indicated on the abscissa of each test agent were injected i.p. Twenty-two hours later uteri were harvested and weighed.
Immature Mouse Uterine Growth Assay. A bioassay for anti-estrotrophic activity was performed using an immature mouse uterine growth assay (22). Swiss/Webster female mice, 6-8 g in body weight (13-15 days old), were obtained from Taconic Farms (Germantown, N.Y.). […] In a typical experiment, each group received two sequential intraperitoneal injections spaced one hour apart. Test material or vehicle control for that material was contained in the first injectant. Estradiol (E2) or vehicle control for E2 was contained in the second injectant. Twenty-two hours after the second injection, uteri were dissected, trimmed free of mesenteries, and immediately weighed. The uterine weights were normalized to mouse body weights (mg uterine weight/g of body weight) to compensate for differences in body weight among litters of the same age. Experiments employed a minimum of five mice per group, and the mean normalized uterine weight±standard error for each group was calculated. Percent growth inhibition in a test group was calculated from the normalized uterine wet weights as described below.

[8] = Shelf-life (storage) studies of lyophilized peptide, read out in the immature mouse uterine growth assay; format: physicochemical; settings: for shelf-life: storage in the lyophilized state, tested in immature mouse uterine growth assay; for time in storage after which anti-estrotrophic activity was lost (diminished to insignificant levels): lyophilized, −20° C.
Source text: as §2, §3

estrogen receptor = target: T1, estrogen receptor (Oryctolagus cuniculus, UniProt G1SML6); assay: Assessment of estrogen receptor antagonism ([3H]E2 binding, uterine cytosol); design: species or system rabbit; settings: for interference with E2 binding to its receptor: peptide concentration range 10^−10 M to 10^−5 M
T1 sequence (G1SML6 1-598): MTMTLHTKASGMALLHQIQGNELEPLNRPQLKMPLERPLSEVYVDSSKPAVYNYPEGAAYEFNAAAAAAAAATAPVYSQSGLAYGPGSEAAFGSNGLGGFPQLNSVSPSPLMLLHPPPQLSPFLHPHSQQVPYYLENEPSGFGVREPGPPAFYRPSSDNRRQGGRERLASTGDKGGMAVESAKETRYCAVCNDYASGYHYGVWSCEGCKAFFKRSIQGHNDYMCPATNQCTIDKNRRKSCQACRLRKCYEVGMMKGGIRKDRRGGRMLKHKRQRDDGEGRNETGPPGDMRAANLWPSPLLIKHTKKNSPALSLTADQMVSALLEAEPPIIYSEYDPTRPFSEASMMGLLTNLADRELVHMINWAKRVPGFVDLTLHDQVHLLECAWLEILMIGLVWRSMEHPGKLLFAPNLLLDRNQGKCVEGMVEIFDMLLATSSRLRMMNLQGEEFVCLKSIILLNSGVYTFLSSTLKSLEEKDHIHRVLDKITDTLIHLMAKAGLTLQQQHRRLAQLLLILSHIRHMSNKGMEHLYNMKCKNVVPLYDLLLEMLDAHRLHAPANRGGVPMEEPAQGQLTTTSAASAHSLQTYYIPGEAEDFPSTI
Experimental: Assessment of Estrogen Receptor Antagonism. Commercially obtained rabbit uteri (Pel-Freez Biological, Rogers, Ark.) were used as a source of estrogen receptor. […] Total count tubes received 20 μl of [^3H] estradiol and 180 μl of assay buffer.

[9] = Preliminary pharmacokinetic studies in mice; format: in vivo, mouse
[10] = tested on: tamoxifen-stimulated growth of immature mouse uterus; assay: Inhibition of tamoxifen-stimulated growth of immature mouse uterus; format: in vivo; settings: Pep i.p. one hour before Tam, uteri weighed 22 hours later
Source text: as §3

[11] = Toxicity to mice in the uterine growth assay; format: in vivo; settings: even at an effective dose of 1 mg/mouse
Source text: as §3

Compound: CC/C(=C(\c1ccccc1)c1ccc(OCCN(C)C)cc1)c1ccccc1 [tamoxifen, reference compound]
users in whom uterine cancer is caused (side effect) [1]: 0.2%
effect on estrogen-dependent growth (tumor volume) of MCF-7 xenografts [2]: no increase in tumor volume
effect on growth (tumor volume) of T47D xenografts [3]: prevented growth
effect on growth (tumor volume) of tamoxifen-resistant MCF-7 subline xenografts [4]: only minimally effective
effect on growth (tumor volume) of MDA-MB-231 xenografts [5]: did not affect the growth

Compound: EMTPVNPGQ [SEQ ID NO: 7: EMTPVNPGQ, linear nonapeptide, glutamine residue added to the C-terminus of the native octapeptide]
dose of maximal (optimal) inhibition of estrogen-stimulated growth of mouse uterus [6]: 1 μg/mouse

interference with E2 binding to its receptor (estrogen receptor): no interference
interference with E2 binding to its receptor (estrogen receptor; listed as linear hydroxyproline-containing octapeptide): did not interfere
Compound: EMTOVNOG (EMT[Hyp]VN[Hyp]G) [SEQ ID NO: 4: EMTOVNOG, linear octapeptide where O is hydroxyproline (4-hydroxyproline for both prolines)]
uterotrophic effect [7]: no uterotrophic effect whatsoever
shelf-life [8]: indefinite shelf-life
biological half-life [9]: two to three
inhibition of tamoxifen's uterotrophic effect (normalized uterine weight, Tam+ Pep vs Tam) [10]: significantly inhibited
inhibition of tamoxifen's uterotrophic effect (normalized uterine weight, Tam+ Pep vs Tam) ([10]; listed as AFP-derived peptide): significantly different
inhibition of tamoxifen's uterotrophic effect (normalized uterine weight, Tam+ Pep vs Tam) ([10]; listed as Peptide): inhibited
effect on estrogen-dependent growth (tumor volume) of MCF-7 xenografts [2]: inhibited; also recorded: no significant increase in tumor volume
inhibition of the uterotrophic effect of estradiol (normalized uterine weight, E2+ Pep vs E2) [6]: inhibited
inhibition of the uterotrophic effect of estradiol (normalized uterine weight, E2+ Pep vs E2) ([6]; listed as AFP-derived peptide): significantly different
dose of maximal (optimal) inhibition of estrogen-stimulated growth of mouse uterus [6]: 1 μg/mouse
effect on growth (tumor volume) of T47D xenografts [3]: completely prevented tumor growth
effect on growth (tumor volume) of tamoxifen-resistant MCF-7 subline xenografts [4]: completely stopped the growth
effect on growth (tumor volume) of MDA-MB-231 xenografts [5]: no effect
effect on growth (tumor volume) of MDA-MB-231 xenografts ([5]; listed as AFP-derived peptide): no differences in tumor volumes

Compound: O=C(c1ccc(OCCN2CCCCC2)cc1)c1c(-c2ccc(O)cc2)sc2cc(O)ccc12 [raloxifene, reference compound]
inhibition of estradiol binding to its receptor (estrogen receptor; concentration of 100 nM): completely inhibited

Compound: CSCC[C@@H]1NC(=O)[C@H](CCC(=O)O)NC(=O)[C@H](CCC(N)=O)NC(=O)CNC(=O)[C@@H]2C[C@@H](O)CN2C(=O)[C@H](CC(N)=O)NC(=O)[C@H](C(C)C)NC(=O)[C@@H]2C[C@@H](O)CN2C(=O)[C@H]([C@@H](C)O)NC1=O [cyclo-(SEQ ID NO: 5: EMTOVNOGQ), cyclo-(EMTOVNOGQ)] (cyclo(EMT[Hyp]VN[Hyp]GQ))
shelf-life [8]: indefinite shelf-life
toxicity to the mice [11]: no evidence of toxicity
effect on estrogen-dependent growth (tumor volume) of MCF-7 xenografts [2]: significantly inhibited
anti-estrotrophic activity ([6]; doses higher than 10 μg/mouse): retained significant anti-estrotrophic activity

Compound: cyclo-(EMTPVNPGQ) (head-to-tail cyclization) [head-to-tail cyclized nonapeptide]
shelf-life [8]: somewhat extended but still rather limited shelf-life
biological activity after prolonged storage ([8]; storage of six months): significant, albeit not optimal, biological activity
inhibition of estrogen-stimulated growth of immature mouse uterus ([6]; at the optimal dose of the linear peptides (1 μg)): very active
effect of 4 M urea treatment on biological activity of stored peptide [6]: restored the optimal biological activity

Compound: QMTPVNPG [SEQ ID NO: 2: QMTPVNPG, linear octapeptide analog of the AFP octapeptide, N-terminal glutamic acid substituted with glutamine]
time in storage after which anti-estrotrophic activity was lost (diminished to insignificant levels) [8]: five and four to five
shelf-life [8]: stored somewhat better than the native octapeptide
biological activity of gel-filtration fraction ([6]; higher molecular weight fraction): biologically inactive
biological activity of gel-filtration fraction ([6]; lower molecular weight fraction): active
dose of maximal (optimal) inhibition of estrogen-stimulated growth of mouse uterus [6]: 1 μg/mouse
effect of 4 M urea treatment on biological activity of stored peptide [6]: restored its biological activity
biological activity of aged peptide ([6]; stored in the lyophilized state at −20° C. for over one year): completely biologically inactive

Compound: EMTPVNPG [SEQ ID NO: 6: EMTPVNPG, native AFP-derived octapeptide, amino acids 472-479 of alpha-fetoprotein, reference compound]
effect of excipient on shelf-life of the peptide ([8]; excipient: dodecylmaltoside): significantly prolonged shelf-life
effect of excipient on shelf-life of the peptide ([8]; excipient: mannitol): significantly prolonged shelf-life
effect of excipient on shelf-life of the peptide ([8]; excipient: sucrose): did not do so
time in storage after which anti-estrotrophic activity was lost (diminished to insignificant levels) [8]: four to five
dose of maximal (optimal) inhibition of estrogen-stimulated growth of mouse uterus [6]: ~1 μg/mouse
effect of 4 M urea treatment on biological activity of stored peptide [6]: regenerated
